{
  "source": "patent US8470806B2",
  "about": "“Perhexiline for treating chronic heart failure” (Heart Metabolics Limited, priority 2004, dated 2013)",
  "key": {"Serum perhexiline levels": {"assay": "Serum perhexiline levels", "assay_type": "in vivo", "settings": "human"}, "patients with CHF [1]": {"system": "patients with CHF", "assay": "Cardiopulmonary exercise test (treadmill, Weber protocol, respiratory gas analysis)", "assay_type": "in vivo, human", "settings": "for VO2max: mean ± SEM", "excerpt": "An embodiment of the invention will now be described by way of example only wherein a double-blind, randomised, placebo-controlled study was undertaken in order to investigate the effects of perhexiline on chronic heart failure. 56 patients with CHF were recruited and all provided written informed consent. Entry criteria were as follows: left ventricular ejection fraction (LVEF) <40%, optimally medicated heart failure with New York Heart Association (NYHA) Class II-III symptoms. Cardiopulmonary exercise testing with respiratory gas analysis, completion of the Minnesota Living with Heart Failure Questionnaire (MLHFQ) and 2-D echocardiography were performed at baseline on all patients. Incremental exercise testing with assessment of respiratory gas exchange was performed on a treadmill using the Weber protocol. Breath by breath respiratory gases were measured during exercise using a Pulmolab EX670 system mass spectrometer which was calibrated before every study. Raw data were averaged to 30 second intervals and oxygen consumption during peak exercise was obtained (VO2 max; ml/kg/min). Electrocardiograms and blood pressure were monitored throughout. Exercise was terminated at the subject's request due to fatigue or breathlessness. […] The primary end-point for this study was pre-defined as VO2 max with the following secondary endpoints: MLHFQ score, LVEF, E:EA ratio, resting, low dose and high dose mean PSV during stress echocardiography and PCr t½. Therapy randomization of the ischemic and non-ischemic groups occurred separately but with similar protocols in order to allow for pre-hoc analysis of the primary endpoint in each group. […] Data were analyzed with SPSS 11.5 for Windows® and expressed as mean±standard error of mean. ANCOVA using baseline values as covariates was performed to test for significance of differences seen in the perhexiline vs. placebo groups following treatment."}, "patients with CHF [2]": {"system": "patients with CHF", "assay": "Minnesota Living with Heart Failure Questionnaire (MLHFQ)", "assay_type": "in vivo, human", "settings": "for Minnesota living with heart failure questionnaire score: higher score = poorer quality of life", "method": "A standard 21-question MLHFQ was employed to determine if perhexiline affected patient quality of life. This is a well validated measure of symptomatology in heart failure (17) and includes questions to assess the ability to perform activities of daily living as well as questions gauging the severity of symptoms due to heart failure. Each question was scored out of 5. The sum of the scores were calculated where a higher score indicated a poorer quality of life. All patients completed the questionnaires alone and without assistance. […] The primary end-point for this study was pre-defined as VO2 max with the following secondary endpoints: MLHFQ score, LVEF, E:EA ratio, resting, low dose and high dose mean PSV during stress echocardiography and PCr t½. Therapy randomization of the ischemic and non-ischemic groups occurred separately but with similar protocols in order to allow for pre-hoc analysis of the primary endpoint in each group. […] Data were analyzed with SPSS 11.5 for Windows® and expressed as mean±standard error of mean. ANCOVA using baseline values as covariates was performed to test for significance of differences seen in the perhexiline vs. placebo groups following treatment."}, "patients with CHF [3]": {"system": "patients with CHF", "assay": "NYHA class before and after treatment", "assay_type": "in vivo, human", "method": "56 patients with CHF were recruited and all provided written informed consent. Entry criteria were as follows: left ventricular ejection fraction (LVEF) <40%, optimally medicated heart failure with New York Heart Association (NYHA) Class II-III symptoms. Cardiopulmonary exercise testing with respiratory gas analysis, completion of the Minnesota Living with Heart Failure Questionnaire (MLHFQ) and 2-D echocardiography were performed at baseline on all patients."}, "patients with CHF [4]": {"system": "patients with CHF", "assay": "Safety and tolerability in the 8-week study (side effects, corrected QT, liver function, neuropathy)", "method": "Following baseline studies, patients were randomized in a double-blind fashion to receive either perhexiline (n=28) or placebo (n=28) 100 mg twice daily. Blood was obtained at 1, 4, and 8 weeks after initiation of the drug for measurements of serum perhexiline levels with subsequent dose titration in order to prevent toxicity. Dose adjustments were advised as per a standard protocol by an unblinded physician. Identical dosage adjustments were also made for randomly allocated placebo-treated patients by the unblinded observer in order to ensure blinding of the investigators was maintained. After 8 weeks of treatment, patients were re-evaluated as above."}, "[5]": {"system": "patients with CHF (ischemic group)", "assay": "Tissue Doppler / dobutamine stress echocardiography, ischemic group", "assay_type": "in vivo, human", "parameters": "Mean PSV (15 segments): unit not given beside the values", "method": "Tissue Doppler assessment of the left ventricle was performed at rest and analysed off-line using Echopac software in order to determine regional myocardial PSV from 15 left ventricular segments described in detail elsewhere (20). These segments were selected to include all areas supplied by the three major coronary arteries and for the greatest reproducibility for acquisition of PSV (21). (See FIG. 4) Following resting echocardiography dobutamine infusion was commenced via a syringe driver and incremented at 3 minute intervals from 5 mcg/kg/min to 10, 20, 30 and 40 mcg/kg/min. Digital loops of 15 views outlined above were stored at 90 seconds of each stage. Up to 1 mg of atropine was given if the hemodynamic response was submaximal. Electrocardiograms and blood pressure were monitored at each stage. End-points for termination of the test were attainment of ≧85% of the target heart rate, evidence of ischemia, or severe side effects from dobutamine. Data from all stages were analysed off-line as with the resting images. PSV data are expressed as velocity at rest, low dose dobutamine infusion ([…]) and peak dose dobutamine infusion (the last infusion stage before infusion terminated, which may include the addition of atropine)."}, "patients with CHF [6]": {"system": "patients with CHF", "assay": "Resting echocardiography (LVEF, volumes, long-axis PSV, E:EA ratio)", "assay_type": "in vivo, human", "settings": "for Long axis function: PSV of lateral mitral valve annulus", "method": "Echocardiography was performed with patients in the left lateral decubitus position using a Vingmed System V echocardiographic machine and a 2.5 MHz transducer. Images were stored digitally. Resting scans were acquired using standard echocardiographic windows for LVEF, transmitral valve Doppler, and resting tissue Doppler. […] Left ventricular volumes for calculation of LVEF were obtained using biplane echocardiography and the modified Simpson's formula. Volumes were averaged over 3 beats. In addition, on-line tissue Doppler peak systolic velocity (PSV) of the lateral mitral valve annulus was obtained as a reflection of left ventricular long-axis function. In theory, improving metabolic efficiency would also lead to an improvement in diastolic function of the left ventricle as energy is also required for cardiac relaxation. The ratio of peak E wave from transmitral valve Doppler vs. the E wave from tissue Doppler of the lateral mitral valve annulus (E:EA ratio) is a sensitive indicator of left ventricular end diastolic pressure (19). […] The primary end-point for this study was pre-defined as VO2 max with the following secondary endpoints: MLHFQ score, LVEF, E:EA ratio, resting, low dose and high dose mean PSV during stress echocardiography and PCr t½. Therapy randomization of the ischemic and non-ischemic groups occurred separately but with similar protocols in order to allow for pre-hoc analysis of the primary endpoint in each group. […] Data were analyzed with SPSS 11.5 for Windows® and expressed as mean±standard error of mean. ANCOVA using baseline values as covariates was performed to test for significance of differences seen in the perhexiline vs. placebo groups following treatment."}, "[7]": {"settings": "Post, after 8 weeks of treatment"}, "[8]": {"settings": "all patients of the perhexiline group, 8 weeks"}},
  "data": [
    {"smiles": "C1CCC(C(CC2CCCCN2)C2CCCCC2)CC1", "note": "(centres unmarked) [Perhexiline, 2-(2,2-dicyclohexylethyl)piperidine]", "values": [
      {"measurement": "concentration at 1 week", "setting": "Serum perhexiline levels; Week 1, 100 mg twice daily with dose titration", "value": "570 ± 190", "unit": "ng/mL"},
      {"measurement": "concentration at 4 weeks", "setting": "Serum perhexiline levels; Week 4, 100 mg twice daily with dose titration", "value": "670 ± 200", "unit": "ng/mL"},
      {"measurement": "concentration at 8 weeks", "setting": "Serum perhexiline levels; Week 8, 100 mg twice daily with dose titration", "value": "430 ± 120", "unit": "ng/mL"},
      {"measurement": "Exercise Time", "setting": "patients with CHF [1]; [7]", "value": "12.3 ± 1.1", "unit": "min"},
      {"measurement": "VO2max", "setting": "patients with CHF [1]; [7]", "value": "18.8 ± 1.1", "unit": "mL/min/kg"},
      {"measurement": "Exercise Time", "setting": "patients with CHF [1]; Pre (baseline)", "value": "10.5 ± 1.2", "unit": "min"},
      {"measurement": "VO2max", "setting": "patients with CHF [1]; Pre (baseline), perhexiline group", "value": "16.1 ± 0.6", "unit": "mL/min/kg"},
      {"measurement": "increase in VO2 max following treatment", "setting": "patients with CHF [1]; [8]", "value": "2.7 ± 0.8", "unit": "mL/min/kg"},
      {"measurement": "increase in VO2 max following treatment (relative)", "setting": "patients with CHF [1]; [8]", "value": 16.7, "unit": "%"},
      {"measurement": "increase in VO2 max", "setting": "patients with CHF [1]; ischemic group, 8 weeks", "value": "2.9 ± 1.2", "unit": "mL/min/kg"},
      {"measurement": "increase in VO2 max", "setting": "patients with CHF [1]; non-ischemic group, 8 weeks", "value": "2.5 ± 0.4", "unit": "mL/min/kg"},
      {"measurement": "reduction of MLHFQ scores following treatment", "setting": "patients with CHF [2]; 8 weeks", "value": 24.4, "unit": "%"},
      {"measurement": "Minnesota living with heart failure questionnaire score", "setting": "patients with CHF [2]; Post, after 8 weeks", "value": "34 ± 5"},
      {"measurement": "Minnesota living with heart failure questionnaire score", "setting": "patients with CHF [2]; Pre (baseline)", "value": "45 ± 5"},
      {"measurement": "NYHA Class", "setting": "patients with CHF [3]; Post, after 8 weeks", "value": "1.9 ± 0.2^+"},
      {"measurement": "NYHA Class", "setting": "patients with CHF [3]; Pre (baseline)", "value": "2.4 ± 0.1"},
      {"measurement": "deaths during the study period", "setting": "patients with CHF [4]; 8-week course", "value": "no deaths in either group"},
      {"measurement": "Corrected QT Interval", "setting": "patients with CHF [4]; Post, after 8 weeks", "value": "413 ± 13", "unit": "ms"},
      {"measurement": "Corrected QT Interval", "setting": "patients with CHF [4]; Pre (baseline)", "value": "413 ± 11", "unit": "ms"},
      {"measurement": "Side effects", "setting": "patients with CHF [4]; perhexiline group, 8-week course", "value": "restricted to transient nausea and dizziness during the first week of treatment"},
      {"measurement": "abnormal liver function tests or neuropathy", "setting": "patients with CHF [4]; with close serum level monitoring and titration", "value": "None of the patients in this study developed abnormal liver function tests or neuropathy"},
      {"measurement": "Mean PSV (15 segments)", "setting": "[5]; Low Dose dobutamine, Post", "value": "5.0 ± 0.5"},
      {"measurement": "Mean PSV (15 segments)", "setting": "[5]; Low Dose dobutamine, Pre", "value": "4.7 ± 0.3"},
      {"measurement": "Mean PSV (15 segments)", "setting": "[5]; Peak Dose dobutamine, Post", "value": "8.2 ± 0.8"},
      {"measurement": "Mean PSV (15 segments)", "setting": "[5]; Peak Dose dobutamine, Pre", "value": "6.6 ± 0.5"},
      {"measurement": "Mean PSV (15 segments)", "setting": "[5]; Rest, Post", "value": "3.8 ± 0.2"},
      {"measurement": "Mean PSV (15 segments)", "setting": "[5]; Rest, Pre", "value": "3.3 ± 0.2"},
      {"measurement": "increase in peak dose PSV", "setting": "[5]; ischemic cohort, peak dose dobutamine, 8 weeks", "value": 24, "unit": "%"},
      {"measurement": "increase in resting mean PSV following treatment", "setting": "[5]; ischemic cohort, rest, 8 weeks", "value": 15, "unit": "%"},
      {"measurement": "increase of mean LVEF following treatment", "setting": "patients with CHF [6]; 8 weeks", "value": "9.9 ± 2.0 absolute percentage points"},
      {"measurement": "relative increase of mean LVEF", "setting": "patients with CHF [6]; 8 weeks", "value": 42, "unit": "%"},
      {"measurement": "E:EA Ratio", "setting": "patients with CHF [6]; Post, after 8 weeks", "value": "6.5 ± 0.9"},
      {"measurement": "Left ventricular ejection fraction", "setting": "patients with CHF [6]; Post, after 8 weeks", "value": "34 ± 2", "unit": "%"},
      {"measurement": "Left ventricular end-diastolic volume", "setting": "patients with CHF [6]; Post, after 8 weeks", "value": "212 ± 9", "unit": "mL"},
      {"measurement": "Left ventricular end-systolic volume", "setting": "patients with CHF [6]; Post, after 8 weeks", "value": "140 ± 8", "unit": "mL"},
      {"measurement": "Long axis function", "setting": "patients with CHF [6]; Post, after 8 weeks", "value": "7.2 ± 0.6^|| cm/s"},
      {"measurement": "E:EA Ratio", "setting": "patients with CHF [6]; Pre (baseline)", "value": "8.6 ± 0.6"},
      {"measurement": "Left ventricular ejection fraction", "setting": "patients with CHF [6]; Pre (baseline)", "value": "24 ± 1", "unit": "%"},
      {"measurement": "Left ventricular end-diastolic volume", "setting": "patients with CHF [6]; Pre (baseline)", "value": "232 ± 11", "unit": "mL"},
      {"measurement": "Left ventricular end-systolic volume", "setting": "patients with CHF [6]; Pre (baseline)", "value": "176 ± 8", "unit": "mL"},
      {"measurement": "Long axis function", "setting": "patients with CHF [6]; Pre (baseline)", "value": "5.8 ± 0.4", "unit": "cm/s"}
    ]}
  ]
}
